Test results reported in ChEMBL document CHEMBL5120871, “Identification of benzamides derivatives of norfloxacin as promising microRNA-21 inhibitors via repressing its transcription” (Bioorg Med Chem, 2022).
Calls of active or inactive are those of the source. The calls are words filed in the database; no cut-off is given here.

What was measured:
[1] = system: microRNA 21; assay: Inhibition of wild type full length miR-21 in human HeLa cells co-expressing firefly luciferase and renilla luciferase gene assessed as fold change in Luc/Rlu by measuring relative […] intensity at 20 uM by Dual-Luciferase reporter based luminometer analysis; type: cell-based
[2] = system: HeLa; assay: Induction of apoptosis in human HeLa cells assessed as early apoptotic cells at 20 uM incubated for 24 hrs by annexin V-FITC and propidium iodide staining based flow cytometry (reference value: 4.35%); type: functional
[3] = system: microRNA 21; assay: Inhibition of miR-21 in human HeLa cells assessed as downregulation of ZNF251 level at 10 uM incubated for 48 hrs by RT-qPCR analysis; type: cell-based
[4] = system: microRNA 21; assay: Inhibition of miR-21 in human HeLa cells assessed as downregulation of pri-miR-21 level at 10 uM and measured for 24 to 48 hrs by RT-qPCR analysis; type: cell-based; conditions: time 24-48 hrs
[5] = system: HeLa; assay: Antiproliferative activity against human HeLa cells incubated for 24 hrs by CCK-8 assay; type: functional, cell-based
[6] = system: microRNA 21; assay: Inhibition of miR-21 in human HeLa cells assessed as upregulation of EGR1 level at 10 uM incubated for 48 hrs by RT-qPCR analysis; type: cell-based
[7] = system: microRNA 21; assay: Inhibition of miR-21 in human HeLa cells assessed as downregulation of ATF4 level at 10 uM incubated for 48 hrs by RT-qPCR analysis; type: cell-based
[8] = system: HeLa; assay: Induction of apoptosis in human HeLa cells assessed as necrotic cells at 10 uM incubated for 24 hrs by annexin V-FITC and propidium iodide staining based flow cytometry (reference value: 0.08%); type: functional
[9] = system: HeLa; assay: Induction of apoptosis in human HeLa cells assessed as necrotic cells at 20 uM incubated for 24 hrs by annexin V-FITC and propidium iodide staining based flow cytometry (reference value: 0.08%); type: functional
[10] = Cytotoxicity against human BEAS-2B cells assessed as reduction in cell proliferation incubated for 24 hrs by CCK-8 assay; type: toxicity, cell-based
[11] = system: microRNA 21; assay: Inhibition of miR-21 in human HeLa cells assessed as increase in PTEN level at 10 to 20 uM incubated for 48 hrs by RT-qPCR analysis; type: cell-based; conditions: dose 10-20 µM
[12] = system: microRNA 21; assay: Inhibition of miR-21 in human HeLa cells assessed as reduction in mature miR-21 level at 10 to 20 uM measured after 24 hrs by RT-qPCR analysis; type: cell-based; conditions: dose 10-20 µM
[13] = system: HeLa; assay: Induction of apoptosis in human HeLa cells assessed as early apoptotic cells at 10 uM incubated for 24 hrs by annexin V-FITC and propidium iodide staining based flow cytometry (reference value: 4.35%); type: functional
[14] = system: HCT-116; assay: Inhibition of colony formation in human HCT-116 cells incubated for 14 days by crystal violet staining based assay; type: functional, cell-based; conditions: dose 0.1-10 µM, time 14.0 day, DDE = dose-dependent effect
[15] = system: HeLa; assay: Induction of apoptosis in human HeLa cells assessed as late apoptotic cells at 20 uM incubated for 24 hrs by annexin V-FITC and propidium iodide staining based flow cytometry (reference value: 2.03%); type: functional
[16] = system: HeLa; assay: Inhibition of cell migration in human HeLa cells at 10 to 20 uM and measured after 24 hrs by crystal violet staining based transwell migration assay; type: functional; conditions: dose 10-20 µM
[17] = system: microRNA 21; assay: Inhibition of miR-21 in human HeLa cells assessed as reduction in mature miR-21 level at 10 to 20 uM measured after 48 hrs by RT-qPCR analysis relative to control; type: cell-based; conditions: dose 10-20 µM
[18] = system: HCT-116; assay: Antiproliferative activity against human HCT-116 cells incubated for 24 hrs by CCK-8 assay; type: functional, cell-based; conditions: HCT-116, 24 h
[19] = system: HeLa; assay: Induction of apoptosis in human HeLa cells assessed as viable cells at 10 uM incubated for 24 hrs by annexin V-FITC and propidium iodide staining based flow cytometry (reference value: 93.54%); type: functional; conditions: read-out: Activity
[20] = system: HeLa; assay: Induction of apoptosis in human HeLa cells assessed as late apoptotic cells at 10 uM incubated for 24 hrs by annexin V-FITC and propidium iodide staining based flow cytometry (reference value: 2.03%); type: functional
[21] = system: microRNA 21; assay: Inhibition of miR-21 in human HeLa cells assessed as upregulation of SLIT2 level at 10 uM incubated for 48 hrs by RT-qPCR analysis; type: cell-based
[22] = system: microRNA 21; assay: Inhibition of miR-21 in human HeLa cells assessed as downregulation of pre-miR-21 level at 10 uM and measured for 24 to 48 hrs by RT-qPCR analysis; type: cell-based; conditions: time 24-48 hrs
[23] = system: microRNA 21; assay: Inhibition of wild type full length miR-21 in human HeLa cells co-expressing firefly luciferase and renilla luciferase gene assessed as fold change in Luc/Rlu by measuring relative […] intensity at 10 uM by Dual-Luciferase reporter based luminometer analysis; type: cell-based
[24] = system: HeLa; assay: Induction of apoptosis in human HeLa cells assessed as viable cells at 20 uM incubated for 24 hrs by annexin V-FITC and propidium iodide staining based flow cytometry (reference value: 93.54%); type: functional; conditions: read-out: Activity
[25] = system: HeLa; assay: Inhibition of colony formation in human HeLa cells incubated for 14 days by crystal violet staining based assay; type: functional, cell-based; conditions: dose 0.1-10 µM, time 14.0 day, DDE = dose-dependent effect
[26] = system: microRNA 21; assay: Inhibition of miR-21 (unknown origin) maturation assessed as cleavage of pre-miR-21 at 5 uM by RT-qPCR analysis relative to control; type: nucleic-acid assay; conditions: Homo sapiens
[27] = target: microRNA 21; assay: Inhibition of miR-21 in human HeLa cells assessed as increase in luciferase activity measured after 48 hrs by bright Glo-luciferase reporter gene assay; type: cell-based
[28] = system: microRNA 21; assay: Inhibition of miR-21 maturation in human MCF7 cells assessed as reduction in pre-miR-21 expression at 5 uM incubated for 48 hrs by RT-PCR analysis relative to control; type: cell-based
[29] = system: microRNA 21; assay: Inhibition of miR-21 maturation in human U87 cells assessed as reduction in pre-miR-21 expression at 30 uM measured upto 24 hrs by RT-PCR analysis relative to control; type: cell-based
[30] = system: microRNA 21; assay: Inhibition of miR-21 maturation in human MCF7 cells assessed as reduction in pre-miR-21 expression at 30 uM measured upto 24 hrs by RT-PCR analysis relative to control; type: cell-based
[31] = system: microRNA 21; assay: Inhibition of miR-21 maturation in human LN-229 cells assessed as reduction in pre-miR-21 expression at 30 uM measured upto 24 hrs by RT-PCR analysis relative to control; type: cell-based
[32] = system: microRNA 21; assay: Inhibition of miR-21 maturation in human SGC-7901 cells assessed as reduction in pre-miR-21 expression at 30 uM measured upto 24 hrs by RT-PCR analysis relative to control; type: cell-based

C#CCNC(=O)c1ccc(NC(=O)c2cn(CC)c3cc(N4CCN(CC5CC5)CC4)c(F)cc3c2=O)cc1
fold change (FC) [1]: 1.07

CCn1cc(C(=O)Nc2ccc(C(=O)NC3CCOCC3)cc2)c(=O)c2cc(F)c(N3CCNCC3)cc21
fold change (FC) [1]: 0.69

CCn1cc(C(=O)Nc2ccccc2)c(=O)c2cc(F)c(N3CCN(Cc4ccccc4)CC3)cc21
fold change (FC) [1]: 1.24

CCn1cc(C(=O)NC2CCN(Cc3ccccc3)CC2)c(=O)c2cc(F)c(N3CCNCC3)cc21
fold change (FC) [1]: 1.09

C#CCNC(=O)c1cn(CC)c2cc(N3CCN(Cc4ccccc4)CC3)c(F)cc2c1=O
fold change (FC) [1]: 1

CCn1cc(C(=O)NCCN2CCCCC2)c(=O)c2cc(F)c(N3CCNCC3)cc21
fold change (FC) [1]: 0.91

CCn1cc(C(=O)Nc2ccc(C(=O)NCCN3CCCCC3)cc2)c(=O)c2cc(F)c(N3CCNCC3)cc21
Activity [2]: 10.67% | inhibition [3]: Active | inhibition [4]: Active | IC50 [5]: 5.5 µM | inhibition [6]: Active | inhibition [7]: Active | Activity [8]: 0.24% | Activity [9]: 0.58% | IC50 at 24 h [10]: > 100 µM | inhibition [11]: Active | inhibition [12]: Active | Activity [13]: 5.74% | inhibition [14]: Dde | Activity [15]: 4.18% | Activity [16]: Active | inhibition [17]: Active | IC50 [18]: 2.8 µM | fold change (FC) [1]: 2.01 | viability at 10 µM [19]: 91.8% | Activity [20]: 2.23% | inhibition [21]: Active | inhibition [22]: Active | fold change (FC) [23]: 1.42 | viability at 20 µM [24]: 84.6% | inhibition [25]: Dde

C#CCNC(=O)c1ccc(NC(=O)c2cn(CC)c3cc(N4CCN(C(=O)CC56CC7CC(CC(C7)C5)C6)CC4)c(F)cc3c2=O)cc1
fold change (FC) [1]: 0.98

CCn1cc(C(=O)Nc2ccc(C(=O)NC(C)C)cc2)c(=O)c2cc(F)c(N3CCNCC3)cc21
IC50 [5]: > 100 µM | fold change (FC) [1]: 1.8

CCn1cc(C(=O)O)c(=O)c2cc(F)c(N3CCNCC3)cc21
fold change (FC) [1]: 1.08

NC[C@H]1O[C@H](O[C@H]2[C@H](O[C@@H]3O[C@H](CSCCNC(=O)CCCCCn4cc(COCCOc5ccc6c(c5)C(=O)N(O)C(=O)C6)nn4)[C@@H](O[C@H]4O[C@H](CN)[C@@H](O)[C@H](O)[C@H]4N)[C@H]3O)[C@@H](O)[C@H](N)C[C@@H]2N)[C@H](N)[C@@H](O)[C@@H]1O
inhibition [26]: 90%

C#CCNC(=O)c1ccc(NC(=O)c2ccccc2Br)cc1
fold change (FC) [1]: 1.64

CCn1cc(C(=O)Nc2ccc(F)cc2)c(=O)c2cc(F)c(N3CCN(Cc4ccccc4)CC3)cc21
IC50 [5]: > 100 µM | IC50 [18]: > 100 µM | fold change (FC) [1]: 1.63

C#CCNC(=O)c1ccc(NC(=O)c2cn(CC)c3cc(N4CCN(Cc5ccccc5)CC4)c(F)cc3c2=O)cc1
fold change (FC) [1]: 1.47

C#CCNC(=O)c1ccc(/N=N/c2ccccc2)cc1
EC50 [27]: 2 µM | fold change (FC) [1]: 1.41

CCCCNC(=O)c1ccc(NC(=O)c2cn(CC)c3cc(N4CCNCC4)c(F)cc3c2=O)cc1
fold change (FC) [1]: 0.98

CN[C@@H]1[C@H](O[C@H]2[C@H](O[C@H]3[C@H](O)[C@@H](O)[C@H](N=C(N)N)[C@@H](O)[C@@H]3N=C(N)N)O[C@@H](C)[C@]2(O)C=O)O[C@@H](CO)[C@H](O)[C@H]1O
inhibition [28]: 80% | fold change (FC) [1]: 1.1

CCn1cc(C(=O)Nc2ccc(C(=O)NCC3CC3)cc2)c(=O)c2cc(F)c(N3CCNCC3)cc21
fold change (FC) [1]: 0.72

CCN(CC)CCNC(=O)c1ccc(NC(=O)c2cn(CC)c3cc(N4CCNCC4)c(F)cc3c2=O)cc1
fold change (FC) [1]: 1.36

CCn1cc(C(=O)N2CCCCC2)c(=O)c2cc(F)c(N3CCN(Cc4ccccc4)CC3)cc21
fold change (FC) [1]: 1.12

C#CCNC(=O)c1ccc(NC(=O)c2cn(CC)c3cc(N4CCNCC4)c(F)cc3c2=O)cc1
fold change (FC) [1]: 1.15

CC[C@@]1(O)C(=O)OCc2c1cc1n(c2=O)Cc2cc3cc(O)ccc3nc2-1 [HYDROXYCAMPTOTHECIN]
IC50 [5]: 0.06 µM | IC50 [18]: 0.05 µM

N#CC1CNC(N)NC1N (centres undefined)
inhibition [29]: 50% | inhibition [30]: 50% | inhibition [31]: 50% | inhibition [32]: 50%

CCn1cc(C(=O)NCCN2CCOCC2)c(=O)c2cc(F)c(N3CCNCC3)cc21
fold change (FC) [1]: 0.57

CCn1cc(C(=O)Nc2ccc(C(=O)NCC(C)C)cc2)c(=O)c2cc(F)c(N3CCNCC3)cc21
IC50 [5]: 13.2 µM | fold change (FC) [1]: 1.92
